According to patent US20120022070A1, “Heat Shock Protein 90 Inhibitors, Methods Of Preparing Same, And Methods For Their Use” (EMORY UNIVERSITY, priority 2008, published 2012):
Read-outs that look alike come from different tables or passages of the source.

Experiments:
[1] = tested on: tumor specific Hsp90 (NCI-N417 cell lysate); experiment: Hsp90 binding FP competition assay; parameters: species or system human; settings: Table 2, GM-cy3B 5 nM
Excerpt: There are several assays that have been developed to identify novel Hsp90 inhibitors based on the interaction of small molecules with recombinant Hsp90 protein, either yeast or human. To measure a therapeutically significant state of Hsp90, an FP assay that uses human cancer cell lysates instead of recombinant protein (Du, Moulick et al. J. Biomol. Screen, 2007, 12, 915-24) was utilized. It probes the interaction of small molecules with tumor-specific Hsp90 and may therefore lead to inhibitors that are not only selective for cancer cells but also specific for a particular malignancy.
The dose-response effect of the compounds was tested in Hsp90 binding FP competition assays to obtain the IC50 of the compounds. The Hsp90 FP competition assay was performed in 384-well black plate using the small-cell lung carcinoma (SCLC) cell line NCI-N417 as a source of tumor specific Hsp90 and the Cy3B-labeled geldanamycin (GM-cy3B) as the FP ligand. The compound was dissolved in DMSO and added at several concentrations to the reaction buffer containing both GM-cy3B (5 nM) and NCI-N417 cell lysate (1 μg/well) in a final volume of 50 μL. Free GM-cy3B (5 nM) and bound GM-cy3B with NCI-N417 cell lysate (5 nM GM-cy3B and 1 μg/well of NCI-N417 cell lysate) were included as controls in each plate. After incubating at room temperature for 2 to 16 hours, the polarization values were measured and expressed as millipolarization (mP) units using Analyst HT plate reader (Molecular Devices). The competitive efficiency of the compounds were expressed as a percentage of control and calculated according to the following equation:
% of control=((mPc−mPf)/(mPb−mPf))×100
where mPc is the recorded mP from compound wells, mPf is the average recorded mP from GM-cy3B-only wells, and mPb is the average recorded mP from wells containing both GM-cy3B and NCI-N417 lysate. IC50 values were determined using a nonlinear regression analysis as implemented in Prism 4.0 (Graphpad Software).

[2] = tested on: Her2 protein in MCF-7 breast cancer cells; experiment: Cell-based Her2 degradation assay by Western Blot; settings: Homo sapiens, read-out: IC50, Her2 degradation WB
Excerpt: Addition of Hsp90 inhibitors to cancer cells induces the proteasomal degradation of a subset of proteins involved in signal transduction such as Raf1 kinase, Akt and certain transmembrane tyrosine kinases such as Her2. Thus, Her2 degradation in cells is a functional read-out of Hsp90 inhibition. Correlation between Hsp90 binding and Her2 degradation in cancer cells is indicative of a selective biological effect in these cells via Hsp90.
A Western blot-based assay was used to measure the cellular level of Her2 protein in MCF-7 breast cancer cell lysates collected after 24 hours of compound treatment. […] Then 2×10^5 cells were seeded in 24 well plates in 500 μl PRMI1640 medium and allowed to attach overnight. The compounds were dissolved in DMSO, added to the wells, and incubated for 24 hours. The cells were washed using ice-cold phosphate-buffered saline (PBS) and lysed in 1% NP40 lysis buffer (10 mM HEPES, pH 7.4, 150 mM NaCl, 1% Nonident P-40, 5 mM Pyrophosphate, 5 mM NaF, 2 mM Orthovanadate, 10 ug/ml Aprotinin, 10 ug/ml Leupeptin, 1 mM PMSF). After boiling with 6×SDS sample buffer, the cell lysates were separated by SDS-PAGE and transferred to nitrocellulose membrane. The membranes were blocked with 5% milk in tris-buffered saline buffer.

[3] = tested on: Her2 protein in SKBr3 breast cancer cells; experiment: Cell-based Her2 degradation assay by Cytoblot; settings: Homo sapiens, SK-BR-3, Table 2, values with asterisk, 24 hours
Procedure: Cellular Her2 level after compound treatment was also monitored by microtiter-based Her2 degradation assay, Cytoblot assay (Huezo, Vilenchik et al. Chem. Biol., 2003, 10, 629-634). This is a cell-based assay that enables the quantitative analysis of intracellular levels of Her2 protein.
The human breast cancer cell lines SKBr3 were maintained in RPMI1640 medium supplemented with 10% FBS. 3000 cells in 100 μl of growth medium were plated per well in black, clear-bottom microtiter plates (Corning) and allowed to attach for at least 24 hours at 37° C. and 5% CO2. Compounds at different doses or vehicle (DMSO) were carefully added to the wells and incubated for 24 hours. The cells were washed twice with ice-cold Tris buffer saline (TBS) containing 0.1% Tween 20 (TBST) and fixed with ice-cold methanol. After washing with TBST, the plate was incubated at RT for 1 hour with SuperBlock (Pierce 37535) and overnight at 4° C. with the anti-Her-2 antibody (Santa Cruz Biotechnology). The plate was then washed with TBST and incubated at RT for 2 hours with an anti-rabbit HRP-linked antibody (Sigma A0545). The chemiluminescent substrate solution (Pierce 38040) was added and the plate was read 5 minutes later in an Analyst HT plate reader (Molecular Devices). Luminescence readings resulting from compound-treated cells versus untreated cells (vehicle treated) were quantified and plotted against compound concentrations to give the IC50 values (defined as concentration of compound required to degrade 50% of total Her2).

[4] = tested on: SKBR3 breast cancer cells; experiment: Cancer cell growth inhibition assay (CellTiter-Blue); format: cell-based; settings: Homo sapiens, SK-BR-3, Table 2, 96 hours
Procedure: The effects of the compounds on cancer cell growth were determined using the CellTiter-Blue cell viability assay (Promega). CellTiter-Blue® Cell Viability is based on the ability of living cells to convert a redox dye (resazurin) into a fluorescent end product (resorufin).
The SKBR3 breast cancer cells were plated in 384-well microtiter plates (Costar) and allowed to attach overnight. After treatment with either compounds or vehicle (DMSO) for 96 hours, the cells were measured for their viability by CellTiter-Blue. Briefly, 10 μl of CelTiter-Blue were added to each well in 384-well plates and incubated at 37° C. for 4 hours. The fluorescence intensity (FI) was measured using the Analyst HT plate reader (Molecular Devices) with an excitation at 545 nm and emission at 595 nm. The IC50 was calculated as the compound concentration that inhibits cell viability by 50% compared with vehicle control wells. The IC50 values were determined as described above.

[5] = MCF7, Table 2, values without asterisk, MCF-7 cells, 24 hours

Row | IC50 [1] [nM] | IC50 [2, 5] [nM] | IC50 [3] [nM] | IC50 [4] [nM] | SMILES | IC50 ([2]; MCF7, 24 h) [nM]
1 | 230 | 1250 to 2500 | 2220 | 950 | O=C1C=C(N2CCC(Cc3ccccc3)CC2)c2ccccc2C1=O [Compound 45] | 
2 | 1860 | 2500 to 5000 | 18600 | 2750 | CC(C)CN(CC(C)C)C1=CC(=O)C(=O)c2ccccc21 [Compound 49] | 
3 | 90 | 1250 to 2500 | 3820 | 1240 | COc1ccccc1NC1=CC(=O)C(=O)c2ccccc21 [Compound 50] | 
4 | 130 | 2500 to 5000 | 3940 | 1420 | COc1ccc(NC2=CC(=O)C(=O)c3ccccc32)c(OC)c1 [Compound 53] | 
5 | 10 | 2500 to 5000 | 4170 | 7460 | COc1cc(NC2=CC(=O)C(=O)c3ccccc32)cc(OC)c1 [Compound 54] | 
6 | 40 | 2500 to 5000 | 3760 | 3170 | O=C1C=C(Nc2ccc3c(c2)OCO3)c2ccccc2C1=O [Compound 55] | 
7 | 540 |  | 1680 | 430 | O=C1C=C(N2CCC(O)(c3ccc(Cl)cc3)CC2)c2ccccc2C1=O [Compound 58] | 
8 | 770 |  | 4270 | 620 | O=C1C=C(N2CCN(Cc3cccc4ccccc34)CC2)c2ccccc2C1=O [Compound 59] | 
9 | 180 |  | 8580 | 2420 | COc1cc(NC2=CC(=O)C(=O)c3ccccc32)cc(OC)c1OC [Compound 60] | 
10 | 390 |  | 4830 | 3180 | COc1ccc(NC2=CC(=O)C(=O)c3ccccc32)cc1OC [Compound 61] | 
11 | 1550 |  | 22700 | > 20000 | O=C1C=C(N2CCNCC2)c2ccccc2C1=O [Compound 62] | 
12 | 1310 |  | 26100 | > 20000 | O=C1C=C(N2CCN(S(=O)(=O)c3cc(Cl)cc(Cl)c3O)CC2)c2ccccc2C1=O [Compound 63] | 
13 | 570 |  | 29100 | > 20000 | COc1ccc(S(=O)(=O)N2CCN(C3=CC(=O)C(=O)c4ccccc43)CC2)cc1OC [Compound 64] | 
14 | 530 |  | 15300 | 3660 | O=C1C=C(Nc2cc3c(cc2Br)OCO3)c2ccccc2C1=O [Compound 65] | 
15 | 610 |  | 22400 | 10900 | COc1cc(Br)c(NC2=CC(=O)C(=O)c3ccccc32)cc1OC [Compound 66] | 
16 | 640 |  | 11400 | 210 | Cc1cc(C)nc(NC2=CC(=O)C(=O)c3ccccc32)c1 [Compound 67] | 

Row | SMILES | IC50 [1] [nM] | IC50 [2, 5] [nM] | IC50 [3] [nM] | IC50 [4] [nM] | IC50 ([2]; MCF7, 24 h) [nM]
17 | COc1ccc(NC2=CC(=O)C(=O)c3ccccc32)cc1 [Compound 51] | 70 |  | 3620 | 16000 | 1250 to 2500
